According to publication PMC4503722, “Novel Phenotypic Outcomes Identified for a Public Collection of Approved Drugs from a Publicly Accessible Panel of Assays” (PLoS ONE, 2015):
Like-named read-outs stand apart in the source and are kept apart here.

Key:
[1] = system: endothelial tube formation in co-cultures of ECFCs and ADSCs treated with VEGF; test: cells; type: cell-based, human
DLD-1 = test: cells; type: cell-based; details: for IC50: read-out: Basal_Viability ATP DLD-1 summarized IC50
SW480 = test: cells; type: cell-based; details: for IC50: read-out: Basal_Viability ATP SW480 summarized IC50
HCT116 = test: cells; type: cell-based; details: for IC50: read-out: Basal_Viability ATP HCT116 summarized IC50
[2] = system: HCT116 cells treated with a GSK3β inhibitor; test: cells; type: cell-based; details: for IC50: read-out: GSK3b inh pretreated_Viability ATP HCT116 summarized IC50
Colo320 = test: cells; type: cell-based; details: for IC50: read-out: Basal_Viability ATP Colo 320 summarized IC50
HT-29 = test: cells; type: cell-based; details: for IC50: read-out: Basal_Viability ATP HT-29 summarized IC50
RKO = test: cells; type: cell-based; details: for IC50: read-out: Basal_Viability ATP RKO summarized IC50
SNU-C1 = test: cells; type: cell-based; details: for IC50: read-out: Basal_Viability ATP SNU-C1 summarized IC50
[3] = system: ECFC/ADSC co-culture cell nuclei number
HeLa cells = test: cells; type: cell-based;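 on Hela CellCycMod PI 4N summarized IC50: value tracks stimulation of 4N DNA content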
[4] = assay number 26, GSK3b inhibitor pretreated
[5] = assay number 14, 2N, read-out: Hela CellCycMod PI 2N summarized IC50
[6] = assay number 15, S phase, read-out: Hela CellCycMod PI S Phase summarized IC50
[7] = assay number 16, 4N, read-out: Hela CellCycMod PI 4N summarized IC50
[8] = assay number 17, MI, read-out: Hela CellCycMod PI MI summarized IC50
[9] = assay number 18, cell number, read-out: Hela CellCycMod PI Cell Number summarized IC50

SMILES: CN(C)c1ccc(C(=C2C=CC(=[N+](C)C)C=C2)c2ccccc2)cc1 [NCGC00013058-02]
- IC50 ([1]; read-out: VEGF_ADSC\ECFC Angio CD31 TubeArea summarized IC50): 0.0605 µM
- IC50 (DLD-1): 0.0218 µM
- IC50 (SW480): 0.00922 µM
- IC50 (HCT116): 0.0179 µM
- IC50 [2]: 0.00983 µM
- IC50 (Colo320): 0.161 µM
- IC50 (HT-29): 0.00982 µM
- IC50 (RKO): 0.118 µM
- IC50 (SNU-C1): 0.0354 µM
- IC50 ([3]; read-out: VEGF_ADSC\ECFC Angio Hoechst NucArea summarized IC50): 1.72 µM

SMILES: CCc1cccc(N(C)C(N)=Nc2cccc3ccccc23)c1.Cl [NCGC00015236-04]
- VEGF_ADSC\ECFC Angio CD31 TubeArea IC50/EC50 [1]: > 10 µM
- Basal_Viability ATP DLD-1 IC50/EC50 (DLD-1; assay number 23, basal): > 20 µM
- Basal_Viability ATP SW480 IC50/EC50 (SW480; assay number 24, basal): > 20 µM
- GSK3b inh pretreated_Viability ATP HCT116 IC50/EC50 [2, 4]: > 20 µM
- Basal_Viability ATP Colo 320 IC50/EC50 (Colo320; assay number 27, basal): > 20 µM
- Basal_Viability ATP HT-29 IC50/EC50 (HT-29; assay number 28, basal): > 20 µM
- Basal_Viability ATP RKO IC50/EC50 (RKO; assay number 29, basal): > 20 µM
- Basal_Viability ATP SNU-C1 IC50/EC50 (SNU-C1; assay number 30, basal): > 20 µM
- VEGF_ADSC\ECFC Angio Hoechst NucArea IC50/EC50 [3]: > 10 µM

SMILES: O=C(O)CN(CCN(CC(=O)O)CC(=O)O)CCN(CC(=O)O)CC(=O)O [NCGC00015360-08]
- IC50 (HeLa cells; [5]): > 10 µM
- IC50 (HeLa cells; [6]): > 10 µM
- IC50 (HeLa cells; [7]): > 10 µM
- IC50 (HeLa cells; [8]): > 10 µM
- IC50 (HeLa cells; [9]): > 10 µM
- IC50 (DLD-1; assay number 23, basal): > 20 µM
- IC50 (SW480; assay number 24, basal): 3.14 µM
- IC50 (HCT116; assay number 25, basal): > 6.67 µM
- IC50 [2, 4]: 0.896 µM
- IC50 (Colo320; assay number 27, basal): > 20 µM
- IC50 (HT-29; assay number 28, basal): > 20 µM
- IC50 (RKO; assay number 29, basal): 2.96 µM
- IC50 (SNU-C1; assay number 30, basal): > 20 µM

SMILES: CCCCOC(=O)c1ccc(N)cc1 [NCGC00016353-08]
- IC50 (HeLa cells; [5]): > 10 µM
- IC50 (HeLa cells; [6]): > 10 µM
- IC50 (HeLa cells; [7]): > 10 µM
- IC50 (HeLa cells; [8]): > 10 µM
- IC50 (HeLa cells; [9]): > 10 µM
- IC50 (DLD-1; assay number 23, basal): 4.56 µM
- IC50 (SW480; assay number 24, basal): 0.586 µM
- IC50 (HCT116; assay number 25, basal): > 20 µM
- IC50 [2, 4]: 5.61 µM
- IC50 (Colo320; assay number 27, basal): > 20 µM
- IC50 (HT-29; assay number 28, basal): > 20 µM
- IC50 (RKO; assay number 29, basal): 0.137 µM
- IC50 (SNU-C1; assay number 30, basal): > 20 µM

SMILES: CCC(=O)c1ccc(O)cc1 [NCGC00018097-06]
- IC50 (HeLa cells; [5]): > 10 µM
- IC50 (HeLa cells; [6]): > 10 µM
- IC50 (HeLa cells; [7]): > 10 µM
- IC50 (HeLa cells; [8]): > 10 µM
- IC50 (HeLa cells; [9]): > 10 µM
- IC50 (DLD-1; assay number 23, basal): 6.67 µM
- IC50 (SW480; assay number 24, basal): 4.1 µM
- IC50 (HCT116; assay number 25, basal): > 20 µM
- IC50 [2, 4]: 6.25 µM
- IC50 (Colo320; assay number 27, basal): > 20 µM
- IC50 (HT-29; assay number 28, basal): > 20 µM
- IC50 (RKO; assay number 29, basal): 7.8 µM
- IC50 (SNU-C1; assay number 30, basal): > 20 µM

SMILES: CCC(COC(=O)c1cc(OC)c(OC)c(OC)c1)(c1ccccc1)N(C)C.O=C(O)/C=C\C(=O)O (centres unmarked) [NCGC00018269-05]
- Hela CellCycMod PI 2N IC50/EC50 (HeLa cells; assay number 14, 2N): > 10 µM
- Hela CellCycMod PI S Phase IC50/EC50 (HeLa cells; assay number 15, S phase): > 10 µM
- Hela CellCycMod PI 4N IC50/EC50 (HeLa cells; assay number 16, 4N): > 10 µM
- Hela CellCycMod PI MI IC50/EC50 (HeLa cells; assay number 17, MI): > 10 µM
- Hela CellCycMod PI Cell Number IC50/EC50 (HeLa cells; assay number 18, cell number): > 10 µM
- Basal_Viability ATP DLD-1 IC50/EC50 (DLD-1; assay number 23, basal): > 20 µM
- Basal_Viability ATP SW480 IC50/EC50 (SW480; assay number 24, basal): > 20 µM
- Basal_Viability ATP HCT116 IC50/EC50 (HCT116; assay number 25, basal): > 20 µM
- GSK3b inh pretreated_Viability ATP HCT116 IC50/EC50 [2, 4]: 1.615 µM
- Basal_Viability ATP Colo 320 IC50/EC50 (Colo320; assay number 27, basal): > 20 µM
- Basal_Viability ATP HT-29 IC50/EC50 (HT-29; assay number 28, basal): > 20 µM
- Basal_Viability ATP RKO IC50/EC50 (RKO; assay number 29, basal): 0.1424 µM
- Basal_Viability ATP SNU-C1 IC50/EC50 (SNU-C1; assay number 30, basal): 2.4514 µM

SMILES: CC[C@H]1CN2CCc3cc(OC)c(OC)cc3[C@@H]2C[C@@H]1C[C@H]1NCCc2cc(OC)c(OC)cc21 [NCGC00024379-16]
- Hela CellCycMod PI 2N IC50/EC50 (HeLa cells; assay number 14, 2N): > 10 µM
- Hela CellCycMod PI 4N IC50/EC50 (HeLa cells; assay number 16, 4N): > 10 µM
- Hela CellCycMod PI MI IC50/EC50 (HeLa cells; assay number 17, MI): 0.9477 µM
- Hela CellCycMod PI Cell Number IC50/EC50 (HeLa cells; assay number 18, cell number): 0.03266 µM
- Basal_Viability ATP DLD-1 IC50/EC50 (DLD-1; assay number 23, basal): 0.01158 µM
- Basal_Viability ATP SW480 IC50/EC50 (SW480; assay number 24, basal): 0.001 µM
- Basal_Viability ATP HCT116 IC50/EC50 (HCT116; assay number 25, basal): 0.06147 µM
- GSK3b inh pretreated_Viability ATP HCT116 IC50/EC50 [2, 4]: 0.001 µM
- Basal_Viability ATP Colo 320 IC50/EC50 (Colo320; assay number 27, basal): 0.0221 µM
- Basal_Viability ATP HT-29 IC50/EC50 (HT-29; assay number 28, basal): 0.01634 µM
- Basal_Viability ATP RKO IC50/EC50 (RKO; assay number 29, basal): 0.00831 µM
- Basal_Viability ATP SNU-C1 IC50/EC50 (SNU-C1; assay number 30, basal): 0.00228 µM
